Each structure is given as a SMILES string.

For this experiment, the target named is T1, indoleamine 2, 3-dioxygenase (IDO1) (Homo sapiens, UniProt P14902).
T1 construct: human peripheral blood mononuclear cells (PBMC) (PB003F; host or cells: human PBMC stimulated with IFN-gamma and LPS
T1 sequence (P14902 whole entry): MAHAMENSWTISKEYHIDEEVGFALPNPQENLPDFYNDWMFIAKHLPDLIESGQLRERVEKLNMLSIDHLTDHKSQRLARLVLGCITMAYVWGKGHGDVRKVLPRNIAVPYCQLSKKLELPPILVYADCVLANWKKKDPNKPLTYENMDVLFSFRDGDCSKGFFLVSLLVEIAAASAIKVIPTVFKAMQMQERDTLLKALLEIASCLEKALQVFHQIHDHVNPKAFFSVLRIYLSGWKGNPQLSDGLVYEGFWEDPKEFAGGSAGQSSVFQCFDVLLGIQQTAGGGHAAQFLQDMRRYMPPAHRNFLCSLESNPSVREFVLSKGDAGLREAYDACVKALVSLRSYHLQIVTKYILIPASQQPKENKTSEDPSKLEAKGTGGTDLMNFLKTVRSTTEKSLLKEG
In words: PBMC IDO1 assay (kynurenine detection via mass spectrometry). The class given is cell-based. The note with it: human PBMC stimulated with IFN-γ and LPS, 2 days, kynurenine by mass spectrometry; read-out: IDO1 PBMC pIC50 (converted). How it is done:
Compounds of the present invention were tested via high-throughput cellular assays utilizing detection of kynurenine via mass spectrometry and cytotoxicity as end-points. For the mass spectrometry and cytotoxicity assays, human peripheral blood mononuclear cells (PBMC) (PB003F; AIICells®, Alameda, Calif.) were stimulated with human interferon-γ (IFN-γ) (Sigma-Aldrich Corporation, St. Louis, Mo.) and lipopolysaccharide from Salmonella minnesota (LPS) (Invivogen, San Diego, Calif.) to induce the expression of indoleamine 2, 3-dioxygenase (IDO1). Compounds with IDO1 inhibitory properties decreased the amount of kynurenine produced by the cells via the tryptophan catabolic pathway. Cellular toxicity due to the effect of compound treatment was measured using CellTiter-Glo® reagent (CTG) (Promega Corporation, Madison, Wis.), which is based on luminescent detection of ATP, an indicator of metabolically active cells.
In preparation for the assays, test compounds were serially diluted 3-fold in DMSO from a typical top concentration of 5 mM and plated at 0.5 μL in 384-well, polystyrene, clear bottom, tissue culture treated plates with lids (Greiner Bio-One, Kremsmunster, Austria) to generate 11-point dose response curves. Low control wells (0% kynurenine or 100% cytotoxicity) contained either 0.5 μL of DMSO in the presence of unstimulated (-IFN-γ/-LPS) PBMCs for the mass spectrometry assay or 0.5 μL of DMSO in the absence of cells for the cytotoxicity assay, and high control wells (100% kynurenine or 0% cytotoxicity) contained 0.5 μL of DMSO in the presence of stimulated (+IFN-γ/+LPS) PBMCs for both the mass spectrometry and cytotoxicity assays.
Frozen stocks of PBMCs were washed and recovered in RPMI 1640 medium (Thermo Fisher Scientific, Inc., Waltham, Mass.) supplemented with 10% v/v heat-inactivated fetal bovine serum (FBS) (Thermo Fisher Scientific, Inc., Waltham, Mass.), and 1× penicillin-streptomycin antibiotic solution (Thermo Fisher Scientific, Inc., Waltham, Mass.). The cells were diluted to 1,000,000 cells/mL in the supplemented RPMI 1640 medium. 50 μL of either the cell suspension, for the mass spectrometry assay, or medium alone, for the cytotoxicity assay, were added to the low control wells, on the previously prepared 384-well compound plates, resulting in 50,000 cells/well or 0 cells/well respectively. IFN-γ and LPS were added to the remaining cell suspension at final concentrations of 100 ng/ml and 50 ng/ml respectively, and 50 μL of the stimulated cells were added to all remaining wells on the 384-well compound plates. The plates, with lids, were then placed in a 37° C., 5% CO2 humidified incubator for 2 days.
Following incubation, the 384-well plates were removed from the incubator and allowed to equilibrate to room temperature for 30 minutes. For the cytotoxicity assay, CellTiter-Glo® was prepared according to the manufacturer's instructions, and 40 μL were added to each plate well. After a twenty minute incubation at room temperature, luminescence was read on an EnVision® Multilabel Reader (PerkinElmer Inc., Waltham, Mass.). For the mass spectrometry assay, 10 μL of supernatant from each well of the compound-treated plates were added to 40 μL of acetonitrile, containing 10 μM of an internal standard for normalization, in 384-well, polypropylene, V-bottom plates (Greiner Bio-One, Kremsmunster, Austria) to extract the organic analytes. Following centrifugation at 2000 rpm for 10 minutes, 10 μL from each well of the acetonitrile extraction plates were added to 90 μL of sterile, distilled H2O in 384-well, polypropylene, V-bottom plates for analysis of kynurenine and the internal standard on the RapidFire 300 (Agilent Technologies, Santa Clara, Calif.) and 4000 QTRAP MS (SCIEX, Framingham, Mass.). MS data were integrated using Agilent Technologies' RapidFire Integrator software, and data were normalized for analysis as a ratio of kynurenine to the internal standard. […]
As for `COc1ccc([C@H](CC2CCN(C(=O)OC(C)(C)C)CC2)NC(=O)c2ccc(Cl)s2)cn1` [Example 16, tert-butyl (S)-4-(2-(5-chlorothiophene-2-carboxamido)-2-(6-methoxypyridin-3-yl)ethyl)piperidine-1-carboxylate], the IC50 is 0.794 nM.

With `COc1ccc([C@H](CC2CCN(C(=O)OC(C)(C)C)CC2)NC(=O)c2ccc(F)cc2)cn1` [Example 17, tert-butyl (S)-4-(2-(4-fluorobenzamido)-2-(6-methoxypyridin-3-yl)ethyl)piperidine-1-carboxylate], the IC50 was 7.94 nM.

On to `CC(C)CC(CC1CCN(C(=O)OC(C)(C)C)CC1)NC(=O)c1ccc(Cl)s1` (stereo not shown) [Example 18, tert-butyl 4-(2-(5-chlorothiophene-2-carboxamido)-4-methylpentyl)piperidine-1-carboxylate], for which the IC50 was 6.31 nM.

On to `COc1ccc([C@H](CC2CCN(C(=O)OC(C)(C)C)CC2)NC(=O)c2ccc(Cl)cc2)cn1` [Example 19, tert-butyl (S)-4-(2-(4-chlorobenzamido)-2-(6-methoxypyridin-3-yl)ethyl)piperidine-1-carboxylate], for which the IC50 is 3.98 nM.

Take `COc1ccc([C@H](CC2CCN(C(=O)OC(C)(C)C)CC2)NC(=O)c2ccc(C)s2)cn1` [Example 20, tert-butyl(S)-4-(2-(6-methoxypyridin-3-yl)-2-(5-methylthiophene-2-carboxamido)ethyl)piperidine-1-carboxylate]: the IC50 was 2 nM.

As to `COc1ccc([C@H](CC2CCN(C(=O)OC(C)C)CC2)NC(=O)c2ccc(Cl)s2)cn1` [Example 21, isopropyl (S)-4-(2-(5-chlorothiophene-2-carboxamido)-2-(6-methoxypyridin-3-yl)ethyl)piperidine-1-carboxylate], the IC50 was 1.58 nM.

Turning to `COc1ccc([C@H](CC2CCN(C(=O)OC(C)C)CC2)NC(=O)c2ccc(Cl)cc2)cn1` [Example 22, isopropyl (S)-4-(2-(4-chlorobenzamido)-2-(6-methoxypyridin-3-yl)ethyl)piperidine-1-carboxylate], the IC50 was 2 nM.

For the molecule `COc1ccc([C@H](CC2CCN(C(=O)OC(C)(C)C)CC2)NC(=O)c2ccc(Br)cc2)cn1` [Example 23, tert-butyl (S)-4-(2-(4-bromobenzamido)-2-(6-methoxypyridin-3-yl)ethyl)piperidine-1-carboxylate], the IC50 is 3.98 nM.

On to `CCc1ccc(C(=O)N[C@@H](CC2CCN(C(=O)OC(C)(C)C)CC2)c2ccc(OC)nc2)s1` [Example 24, tert-butyl (S)-4-(2-(5-ethylthiophene-2-carboxamido)-2-(6-methoxypyridin-3-yl)ethyl)piperidine-1-carboxylate], for which the IC50 is 3.16 nM.

In the case of `COc1ccc([C@H](CC2CCN(C(=O)OC(C)(C)C)CC2)NC(=O)c2ccc(F)s2)cn1` [Example 25, tert-butyl (S)-4-(2-(5-fluorothiophene-2-carboxamido)-2-(6-methoxypyridin-3-yl)ethyl)piperidine-1-carboxylate], the IC50 is 3.16 nM.

For `Cc1ccc(C(=O)NC(CC(C)C)CC2CCN(C(=O)OC(C)(C)C)CC2)s1` (stereo not shown) [Example 26, tert-butyl 4-(4-methyl-2-(5-methylthiophene-2-carboxamido)pentyl)piperidine-1-carboxylate], the IC50 is 7.94 nM.

As for `CC(C)CC(CC1CCN(C(=O)OC(C)(C)C)CC1)NC(=O)c1ccc(Br)cc1` (stereo not shown) [Example 27, tert-butyl 4-(2-(4-bromobenzamido)-4-methylpentyl)piperidine-1-carboxylate], the IC50 was 10 nM.

`CC(C)CC(CC1CCN(C(=O)OC(C)(C)C)CC1)NC(=O)c1ccc(Br)s1` (stereo not shown) [Example 28, tert-butyl 4-(2-(5-bromothiophene-2-carboxamido)-4-methylpentyl)piperidine-1-carboxylate]: the IC50 was 7.94 nM.

For `COc1ccc([C@H](CC2CCN(C(=O)OC(C)(C)C)CC2)NC(=O)c2ccc(Br)s2)cn1` [Example 29, tert-butyl (S)-4-(2-(5-bromothiophene-2-carboxamido)-2-(6-methoxypyridin-3-yl)ethyl)piperidine-1-carboxylate], the IC50 was 1.58 nM.

Regarding `CCc1ccc(C(=O)N[C@@H](CC2CCN(C(=O)OC(C)(C)C)CC2)c2ccccc2)s1` [Example 30, tert-butyl (S)-4-(2-(5-ethylthiophene-2-carboxamido)-2-phenylethyl)piperidine-1-carboxylate], the IC50 was 10 nM.

As for `CC(C)(C)OC(=O)N1CCC(CC(NC(=O)c2ccc(Br)s2)C2CCCCC2)CC1` (stereo not shown) [Example 31, tert-butyl 4-(2-(5-bromothiophene-2-carboxamido)-2-cyclohexylethyl)piperidine-1-carboxylate], the IC50 was 7.94 nM.

On to `CC(C)OC(=O)N1CCC(C[C@H](NC(=O)c2ccc(Cl)cc2)c2ccccc2)CC1` [Example 32, isopropyl (S)-4-(2-(4-chlorobenzamido)-2-phenylethyl)piperidine-1-carboxylate], for which the IC50 was 10 nM.

As for `CCc1ccc(C(=O)N[C@@H](CC2CCN(C(=O)OC(C)C)CC2)c2ccccc2)s1` [Example 33, isopropyl (S)-4-(2-(5-ethylthiophene-2-carboxamido)-2-phenylethyl)piperidine-1-carboxylate], the IC50 is 7.94 nM.

As to `C=CC[C@H](CC1CCN(C(=O)OC(C)(C)C)CC1)NC(=O)c1ccc(Cl)s1` [Example 34, tert-butyl (R)-4-(2-(5-chlorothiophene-2-carboxamido)pent-4-en-1-yl)piperidine-1-carboxylate], the IC50 was 3.98 nM.

As to `CC(C)CC(CC1CCN(C(=O)Oc2ccccc2)CC1)NC(=O)c1ccc(Cl)s1` (stereo not shown) [Example 35, phenyl 4-(2-(5-chlorothiophene-2-carboxamido)-4-methylpentyl)piperidine-1-carboxylate], the IC50 was 6.31 nM.

Turning to `COc1ccc([C@H](CC2CCN(C(=O)Oc3ccccc3)CC2)NC(=O)c2ccc(Cl)s2)cn1` [Example 36, phenyl (S)-4-(2-(5-chlorothiophene-2-carboxamido)-2-(6-methoxypyridin-3-yl)ethyl)piperidine-1-carboxylate], the IC50 was 1.58 nM.

`COc1ccc([C@H](CC2CCN(C(=O)Oc3ccccc3)CC2)NC(=O)c2ccc(Cl)cc2)cn1` [Example 37, phenyl (S)-4-(2-(4-chlorobenzamido)-2-(6-methoxypyridin-3-yl)ethyl)piperidine-1-carboxylate]: the IC50 was 2.51 nM.

On to `C[C@H](CC1CCN(C(=O)OC(C)(C)C)CC1)NC(=O)c1ccc(Cl)s1` [Example 38, tert-butyl (R)-4-(2-(5-chlorothiophene-2-carboxamido)propyl)piperidine-1-carboxylate], for which the IC50 was 5.01 nM.

Regarding `COc1ccc([C@H](CC2CCN(C(=O)CC(C)(C)C)CC2)NC(=O)c2ccc(Cl)s2)cn1` [Example 39, (S)-5-chloro-N-(2-(1-(3,3-dimethylbutanoyl)piperidin-4-yl)-1-(6-methoxypyridin-3-yl)ethyl)thiophene-2-carboxamide], the IC50 was 5.01 nM.

Turning to `COc1ccc([C@H](CC2CCN(C(=O)NC(C)(C)C)CC2)NC(=O)c2ccc(Cl)s2)cn1` [Example 40, (S)-N-(tert-butyl)-4-(2-(5-chlorothiophene-2-carboxamido)-2-(6-methoxypyridin-3-yl)ethyl)piperidine-1-carboxamide], the IC50 is 3.98 nM.

Source of the values: patent US20210078988A1, “MODULATORS OF INDOLEAMINE 2,3-DIOXYGENASE” (GLAXOSMITHKLINE INTELLECTUAL PROPERTY DEVELOPMENT LIMITED, priority 2017, published 2021).
